Data set [1] relates to CD44. Description: Expression of the hyaluronic acid receptor (CD44) at the surface of keratinocytes, anti-CD44 antibody labelling normalized to cellular DNA (protocol II). The data set is classed as cell-based, human. Conditions: 0.22 mM. The procedure: II—Measurement of the Expression of the Hyaluronic Acid Receptor (CD44) at the Surface of Keratinocytes
Steps 1 and 2 are identical to steps 1 and 2 of I.
3—Binding of the cells to 2% paraformaldehyde in PBS containing calcium and magnesium for 5 minutes at ambient temperature.
4—Saturation of the Nonspecific Antigen-Antibody Binding Sites:
After rinsing twice with PBS, the cells are incubated with PBS saturation medium with calcium and magnesium supplemented with 5% v/v of calf serum and 0.05% w/v of sodium azide, for 1 hour at ambient temperature. […]
7—Fluorescence Quantification:
After rinsing twice with the saturation medium, the fluorescence present in the wells is read with 50 μl of PBS at λ excitation=544 nm and k emission=590 nm. […]
The products whose activity on the expression of the CD44 receptor it is desired to evaluate are added to the culture medium 24 hours after inoculation of the cells. […] Controls are carried out in the absence of the products to be evaluated, and in the presence of the excipient which was used to dissolve them. […]
(§1) The values thus obtained are normalized, taking account of the amount of cellular material present in the wells. To do this, the cellular DNA content is measured by the DAPI method (see protocol below).
III—Quantification of the Cellular DNA with […] Dihydrochloride (DAPI) […]
3—Fluorescence Quantification: […]

In data set [2] the test system is CD44 receptor. Description: Functionality of the CD44 receptor: hyaluronic acid binding by keratinocytes after 48 hours of treatment, normalized to cellular DNA (protocol II-9). The format is cell-based, human. The settings on record: 0.22 mM. The procedure: The products whose activity on the expression of the CD44 receptor it is desired to evaluate are added to the culture medium 24 hours after inoculation of the cells. To do this, the inoculation medium is removed and replaced with an identical medium containing the test substance. The incubation then continues for 48 hours. Controls are carried out in the absence of the products to be evaluated, and in the presence of the excipient which was used to dissolve them. All the factors are otherwise equal.
9—Measurement of the functionality of the CD44 receptor.
as §1
III—Quantification of the Cellular DNA with […] Dihydrochloride (DAPI)
The quantification of the cellular DNA may be carried out directly on the cultures after quantification of the CD44 expression.
30 μl of methanol at −20° C. are added to each well for 1 min.
After rinsing twice with PBS, a 20 μg/ml DAPI solution is added over 15 minutes at ambient temperature and in darkness.
3—Fluorescence Quantification:
After rinsing twice with PBS, the fluorescence present in the wells is read with 50 μl of PBS at λ excitation=355 nm and λemission=460 nm.

Data set [3] relates to human keratinocytes. Conditions: for Fluorescence measured (FU) Mean: Table III; for Amount of fluorescence measured compared with calcium chloride at equivalent molarity: 5 and 10 mM. On the procedure:
I-Measurement of the Amount of Haluronic Acid Bound to the Surface of Keratinocytes
The following steps are performed:
15,000 human keratinocytes are inoculated in culture wells (96-well plates) in a K-SFM medium (Gibco).
2—Production of Confluent Cultures:
Incubation of the cultures for 72 hours at 37° C. under a humidity-saturated atmosphere, with 5% CO2, with renewal of the culture medium after 48 h.
3—Binding of Hyaluronic Acid:
Incubation of the cells for 4 hours at 4° C. with hyaluronic acid covalently bonded to a fluorochrome, […] (HA-FA), synthesized in the laboratory according to the technique described in “Preparation and properties of fluoresceine-labelled hyaluronate; carbohydrate research, 1975, Vol. 44, pp. 251-257”, prepared in K-SFM containing 0.2% sodium azide.
4—Evaluation of the Activity of the Test Products:
The products for which it is desired to evaluate the action on the amount of HA-FA bound by keratinocytes are added to the incubation medium at the start of incubation. Controls are carried out in the absence of the products to be evaluated and in the presence of their excipient which was used to dissolve them.
5—Nonspecific Binding of HA-FA.
In order to determine the nonspecific labelling, the same experimental conditions as in step 3 are rigorously used, but with the addition of 200 times more hyaluronic acid not labelled with a fluorochrome.
6—Fluorescence Quantification:
After the HA-FA binding medium has been removed, two rinses with PBS are carried out, after which the fluorescence bound to the keratinocytes is measured at an excitation wavelength λex 485 nm and an emission wavelength λem=538 nm.
7—Expressing the Results:
The results are expressed in fluorescence units (“specific fluorescence”), with the nonspecific fluorescence being deducted (see 5-).
To do this, the fluorescence values measured are reduced to the cellular DNA content, carried out according to the DAPI method (see III-).

Like-named read-outs stand apart in the source and are kept apart here. Marks after values point to notes of the source that are not given here.

Consider `CC(O)C(=O)[O-].[Na+]` (centres unmarked) [Sodium lactate, sodium lactate], for which the “Expression of CD44 at the surface of human keratinocytes % increase” value in data set [1] (48 hours, versus 0 mM control) is listed as 32%. Moreover, the “Expression of CD44 at the surface of human keratinocytes CD44 (FU)/cellular DNA (FU) labelling Mean” value in data set [1] (cells treated for 48 hours, control 189 ± 28) is recorded as 249 ± 31. Moreover, the “Binding of hyaluronic acid to the surface of human keratinocytes Binding (FU)/cellular DNA (FU) Mean” value in data set [2] (48 hours of treatment, control 59 ± 8.5) came to 105 ± 24. The “Binding of hyaluronic acid to the surface of human keratinocytes % increase” value in data set [2] (48 hours, versus 0 mM control) came to 78%.

For `O=C([O-])[C@H](O)[C@@H](O)[C@H](O)[C@H](O)CO.[Na+]` [sodium gluconate], the “Fluorescence measured (FU) Mean” value in data set [3] (sodium gluconate 10 mM with CaCl2 2.5 mM) is given as 27 FU; in data set [3] (sodium gluconate 10 mM with CaCl2 5 mM), 84* FU; in data set [3] (sodium gluconate 10 mM with CaCl2 10 mM) it was 2,186* FU; in data set [3] (sodium gluconate 10 mM, CaCl2 0 mM), 6 FU. The “Increase of the effects of calcium on hyaluronic acid binding, factor” value in data set [3] (relatively optimized conditions (10 mM CaCl2 / 2.5 mM sodium gluconate)) is recorded as at least 12.

On to calcium gluconate, for which, in data set [3], the “Amount of fluorescence measured compared with calcium chloride at equivalent molarity” value is “significantly greater”.

Regarding manganese chloride [MnCl2], the “Amount of fluorescence measured compared with calcium chloride at equivalent molarity” value in data set [3] is listed as “significantly greater”.
